Source: US20260062412A1, “NITROGEN-CONTAINING HETEROCYCLIC COMPOUND HAVING MYT1 INHIBITORY ACTIVITY” (CHUGAI SEIYAKU KABUSHIKI KAISHA, priority 2023, published 2026)

Experiments:
MYT1 protein [1] = target: T1, MYT1 protein (Homo sapiens (Human), UniProt Q99640); experiment: MYT1 kinase activity inhibition test (ELISA, phosphorylation of Y15 of CDK1); type: biochemical; conditions: phosphorylation level of Y15 of CDK1 protein caused by MYT1 protein, 60 minutes
Summary of the method: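 Recombinant human MYT1 (5 nM working solution) was incubated 60 min at room temperature with compound and ATP (83.3 μM working solution) on a CDK1-coated ELISA plate. CDK1 Y15 phosphorylation was detected with HRP anti-phosphotyrosine, read as A450 minus A590. Inhibition was normalised to no-compound (100%) and no-enzyme (0%) signals to derive IC50.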

MYT1 protein [2] = target: T1, MYT1 protein; experiment: Test for binding to ATP binding site of MYT1 (Kinase Tracer 178 / Eu-Anti-GST antibody TR-FRET); conditions: ATP binding site of MYT1, 30 minutes at room temperature
LU65 = experiment: Cytotoxicity test with pemetrexed upon addition of each example compound (CellTiter-Glo); type: cell-based, human; conditions: combination with pemetrexed, LU65 cells, 7 days; maximum value, at the MYT1 inhibitor and pemetrexed concentrations
Summary of the method: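 LU65 lung cancer cells (RB1 S82* truncation, reduced RB1 function) in RPMI-1640/10% FBS were treated with pemetrexed plus each compound over concentration series, 7 days at 37 °C. ATP measured by CellTiter-Glo luminescence; survival relative to DMSO after blank subtraction, cytotoxicity = 100% minus survival.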

T1 sequence (Q99640 whole entry): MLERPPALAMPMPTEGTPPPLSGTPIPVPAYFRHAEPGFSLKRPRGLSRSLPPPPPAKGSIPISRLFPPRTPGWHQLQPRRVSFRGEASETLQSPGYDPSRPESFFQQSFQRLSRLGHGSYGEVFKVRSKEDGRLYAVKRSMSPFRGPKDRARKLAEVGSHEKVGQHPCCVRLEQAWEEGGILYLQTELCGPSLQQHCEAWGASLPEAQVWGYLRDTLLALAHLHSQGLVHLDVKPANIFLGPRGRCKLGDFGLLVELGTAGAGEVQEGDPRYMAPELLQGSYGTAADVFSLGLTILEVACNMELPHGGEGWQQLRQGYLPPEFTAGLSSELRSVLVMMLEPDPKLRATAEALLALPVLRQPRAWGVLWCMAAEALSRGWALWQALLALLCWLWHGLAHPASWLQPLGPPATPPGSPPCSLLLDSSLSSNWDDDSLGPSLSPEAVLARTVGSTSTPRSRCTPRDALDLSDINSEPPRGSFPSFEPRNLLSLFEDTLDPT

Compound | IC50 (MYT1 protein [1]) [nM] | IC50 (MYT1 protein [2]) [nM] | Bliss Score (Max) (LU65) [%] | HSA Score (MAX) (LU65) [%]
Nc1c(-c2ccc(F)c3[nH]ncc23)c2cc(C3CC3)c3cnccc3c2[nH]c1=O.O=C(O)C(F)(F)F [Compound P4, 3-Amino-6-cyclopropyl-4-(7-fluoro-1H-indazol-4-yl)-1H-1,8-phenanthrolin-2-one 2,2,2-trifluoroacetate] | 5.9 | 6.1 | 56 | 67
Nc1c(-c2cccc3[nH]ncc23)c2cc(C3CC3)c3ccncc3c2[nH]c1=O [Compound Q1, 3-Amino-6-cyclopropyl-4-(1H-indazol-4-yl)-1H-1,9-phenanthrolin-2-one] | 0.83 | 9.3 | 52 | 58

The remaining compounds from weak to strong by IC50 (MYT1 protein [1]), led by results:

IC50 (MYT1 protein [1]) [nM] | IC50 (MYT1 protein [2]) [nM] | Compound | Bliss Score (Max) (LU65) [%] | HSA Score (MAX) (LU65) [%]
15 | 4 | Nc1c(-c2ccc(F)c3[nH]ncc23)c2cc(C3CC3)c3cccnc3c2[nH]c1=O [Compound D2, 3-Amino-6-cyclopropyl-4-(7-fluoro-1H-indazol-4-yl)-1H-1,10-phenanthrolin-2-one] | 42 | 51
0.22 | 1.8 | Nc1c(-c2cccc3[nH]ncc23)c2cc(C3CC3)c3cnccc3c2[nH]c1=O [Compound P1, 3-Amino-6-cyclopropyl-4-(1H-indazol-4-yl)-1H-1,8-phenanthrolin-2-one] | 49 | 55
0.086 | 0.91 | Nc1c(-c2ccc(F)c3[nH]ncc23)c2cc(O[C@H]3C[C@H](F)C3)c3nccnc3c2[nH]c1=O [Compound G16, 8-Amino-5-((1,3r)-3-fluorocyclobutyl)oxy-7-(7-fluoro-1H-indazol-4-yl)-10H-pyrido[2,3-f]quinoxalin-9-one] | 50 | 58
